Where two headings read alike, the source gives them in different places.
Assays:
DU145 = test: Sulforhodamine B (SRB) growth inhibition assay; format: cell-based, Human; settings: for ratio vs flox (GI50) DU145: GI50 of conjugate vs floxuridine; for GI50: SRB assay, cells exposed for 24 h, read-out: GI50 values (μM) DU145
Protocol: (§1) The aim was to determine the GI50 values for PEG-floxuridine conjugates against a panel of cell lines, and based on previous data from Xenograft studies. […] The test articles were solubilized in dimethylsulfoxide and were tested at four different molar (M) concentrations; 10^−4, 10^−5, 10^−6, M. GI50 (the concentration needed to reduce the growth of treated cells to half that of untreated control cells) was calculated for each condition ([(Ti−Tz)/(C-Tz)]×100=50, where Ti, Tz, and C refer to absorbance values obtained from each tested concentration, time zero, and control treatment, respectively).
as §1, with “The objective” for “The aim”, “the IC50” for “the GI50”, “for PEG-gemcitabine” for “for PEG-floxuridine”, “in dimethyl sulfoxide” for “in dimethylsulfoxide”, “10^−6, 10^−7” for “10^−6,”, “condition ([(Ti−Tz)/(C−Tz)]×100=50,” for “condition ([(Ti−Tz)/(C-Tz)]×100=50,”

CAKI-1 = test: In vitro cytotoxicity assay (CellTiter-Glo); format: cell-based; settings: for IC50: 72 h exposure, CellTiter-Glo
COLO205 = test: Sulforhodamine B (SRB) growth inhibition assay; format: cell-based, Human; settings: COLO205; SRB assay, cells exposed for 24 h; read-out: GI50 values (μM) COLO205
Protocol: (§2) In Vitro Screening of PEG-Gemcitabine Monophosphate in Selected Human Cancer Cell Lines
as §1
as §1, with “The objective” for “The aim”, “the IC50” for “the GI50”, “for PEG-gemcitabine” for “for PEG-floxuridine”, “in dimethyl sulfoxide” for “in dimethylsulfoxide”, “10^−6, 10^−7” for “10^−6,”, “condition ([(Ti−Tz)/(C−Tz)]×100=50,” for “condition ([(Ti−Tz)/(C-Tz)]×100=50,”

HT29 = test: Sulforhodamine B (SRB) growth inhibition assay; format: cell-based, Human; settings: for ratio vs flox (GI50) HT29: GI50 of conjugate vs floxuridine; for GI50: SRB assay, cells exposed for 24 h, read-out: GI50 values (μM) HT29
Protocol: as §2, §1
as §1, with “The objective” for “The aim”, “the IC50” for “the GI50”, “for PEG-gemcitabine” for “for PEG-floxuridine”, “in dimethyl sulfoxide” for “in dimethylsulfoxide”, “10^−6, 10^−7” for “10^−6,”, “condition ([(Ti−Tz)/(C−Tz)]×100=50,” for “condition ([(Ti−Tz)/(C-Tz)]×100=50,”

MCF7 = test: Sulforhodamine B (SRB) growth inhibition assay; format: cell-based, Human; settings: for ratio vs flox (GI50) MCF7: GI50 of conjugate vs floxuridine; for GI50: SRB assay
Protocol: as §2, §1
as §1, with “The objective” for “The aim”, “the IC50” for “the GI50”, “for PEG-gemcitabine” for “for PEG-floxuridine”, “in dimethyl sulfoxide” for “in dimethylsulfoxide”, “10^−6, 10^−7” for “10^−6,”, “condition ([(Ti−Tz)/(C−Tz)]×100=50,” for “condition ([(Ti−Tz)/(C-Tz)]×100=50,”

Hop62 = test: Sulforhodamine B (SRB) growth inhibition assay; format: cell-based, Human; settings: for ratio vs flox (GI50) Hop62: GI50 of conjugate vs floxuridine; for GI50: SRB assay, cells exposed for 24 h, read-out: GI50 values (μM) Hop62
Protocol: as §2, §1
as §1, with “The objective” for “The aim”, “the IC50” for “the GI50”, “for PEG-gemcitabine” for “for PEG-floxuridine”, “in dimethyl sulfoxide” for “in dimethylsulfoxide”, “10^−6, 10^−7” for “10^−6,”, “condition ([(Ti−Tz)/(C−Tz)]×100=50,” for “condition ([(Ti−Tz)/(C-Tz)]×100=50,”

HCT15 = test: Sulforhodamine B (SRB) growth inhibition assay; format: cell-based, Human; settings: SRB assay, cells exposed for 24 h, read-out: GI50 values (μM) HCT15
Protocol: as §2, §1
as §1, with “The objective” for “The aim”, “the IC50” for “the GI50”, “for PEG-gemcitabine” for “for PEG-floxuridine”, “in dimethyl sulfoxide” for “in dimethylsulfoxide”, “10^−6, 10^−7” for “10^−6,”, “condition ([(Ti−Tz)/(C−Tz)]×100=50,” for “condition ([(Ti−Tz)/(C-Tz)]×100=50,”

A2780 = test: Sulforhodamine B (SRB) growth inhibition assay; format: cell-based, Human; settings: for ratio vs flox (GI50) A2780: GI50 of conjugate vs floxuridine; for GI50: SRB assay, cells exposed for 24 h, read-out: GI50 values (μM) A2780
Protocol: as §2, §1
as §1, with “The objective” for “The aim”, “the IC50” for “the GI50”, “for PEG-gemcitabine” for “for PEG-floxuridine”, “in dimethyl sulfoxide” for “in dimethylsulfoxide”, “10^−6, 10^−7” for “10^−6,”, “condition ([(Ti−Tz)/(C−Tz)]×100=50,” for “condition ([(Ti−Tz)/(C-Tz)]×100=50,”

MDCK cells [1] = test system: MDCK cells
Description: (§6) Bi-Directional Permeability of PEG-Floxuridine Conjugates in Caco-2 and MDCK Cells

NCI/ADR-RES = test: Sulforhodamine B (SRB) growth inhibition assay; format: cell-based, Human; settings: cells exposed for 24 h, read-out: GI50 values (μM) NCI/ADR-RES
Protocol: as §2
(§3) The aim was to determine the GI50 values for PEG-floxuridine conjugates against a panel of cell lines, and based on previous data from Xenograft studies. The cells were exposed for 24 h, and cell viability assessed by using the Sulphorhodamine (SRB) assay. The test articles were solubilized in dimethylsulfoxide and were tested at four different molar (M) concentrations; 10^−4, 10^−5, 10^−6, M. GI50 (the concentration needed to reduce the growth of treated cells to half that of untreated control cells) was calculated for each condition ([(Ti−Tz)/(C-Tz)]×100=50, where Ti, Tz, and C refer to absorbance values obtained from each tested concentration, time zero, and control treatment, respectively).
as §3, with “The objective” for “The aim”, “the IC50” for “the GI50”, “for PEG-gemcitabine” for “for PEG-floxuridine”, “in dimethyl sulfoxide” for “in dimethylsulfoxide”, “10^−6, 10^−7” for “10^−6,”, “condition ([(Ti−Tz)/(C−Tz)]×100=50,” for “condition ([(Ti−Tz)/(C-Tz)]×100=50,”

Caco-2 cells [2] = test system: Caco-2 cells
Description: as §6

HT-29 = test: In vitro cytotoxicity assay (CellTiter-Glo); format: cell-based; settings: for IC50: 72 h exposure, CellTiter-Glo
Protocol: (§4) The objective of these studies were to determine the IC50 values for PEG-floxuridine conjugates against floxuridine-resistant cell lines based on data from previous Xenograft studies. The cells were exposed for 72 h, and cell viability assessed by using the CellTiter-Glo assay.
(§5) The objective of these studies was to determine the IC50 values for PEG-gemcitabine conjugates against gemcitabine-resistant cell lines based on data from previous Xenograft studies. The cells were exposed for 72 h, and cell viability assessed by using the CellTiter-Glo assay.

HCT-116 = test: In vitro cytotoxicity assay (CellTiter-Glo); format: cell-based; settings: for IC50: 72 h exposure, CellTiter-Glo
Protocol: as §4, §5

MIA PaCa-2 = test: In vitro cytotoxicity assay (CellTiter-Glo); format: cell-based; settings: for IC50: 72 h exposure, CellTiter-Glo
Protocol: as §4, §5

Caco-2 cells [3] = test: Bi-directional permeability in Caco-2 cells
Description: as §6

MDCK cells [4] = test: Bi-directional permeability in MDCK cells
Description: as §6

[5] = cells exposed for 24 h, read-out: GI50 values (μM) MCF7

Structure (SMILES)	ratio vs flox (GI50) DU145 (DU145)	GI50 (DU145) [µM]	Ratio vs floxuridine (IC50) CAKI-1 (CAKI-1)	IC50 (CAKI-1) [nM]	GI50 (COLO205) [µM]	ratio vs flox (GI50) HT29 (HT29)	GI50 (HT29) [µM]	ratio vs flox (GI50) MCF7 (MCF7)	GI50 (MCF7; [5]) [µM]	ratio vs flox (GI50) Hop62 (Hop62)	GI50 (Hop62) [µM]	GI50 (HCT15) [µM]	ratio vs flox (GI50) A2780 (A2780)	GI50 (A2780) [µM]	GI50 (NCI/ADR-RES) [µM]	Ratio vs floxuridine (IC50) HT-29 (HT-29)	IC50 (HT-29) [nM]	Ratio vs floxuridine (IC50) HCT-116 (HCT-116)	IC50 (HCT-116) [nM]	Ratio vs floxuridine (IC50) MIA PaCa-2 (MIA PaCa-2)	also measured
COCCOCCOCCOP(=O)(O)OC[C@H]1O[C@@H](n2cc(F)c(=O)[nH]c2=O)C[C@@H]1O [Floxuridine Mono (mPEG3), 5′-floxuridine methoxy tri(ethylene glycol) phosphate]	0.005	0.12	1	145	1.8	4	> 100	0.7	0.11	417	> 100	32	32	2.1	< 0.1	1	87	2	56	1	Papp A -> B (MDCK cells [1]): <0.06 10^−6 cm/s; Papp B -> A (MDCK cells [1]): <0.07 10^−6 cm/s; Significant efflux (MDCK cells [1]): No; percent recovery A -> B (MDCK cells [1]): 98%; percent recovery B -> A (MDCK cells [1]): 98%; Papp A -> B (Caco-2 cells [2]): <0.19 10^−6 cm/s; Papp B -> A (Caco-2 cells [2]): <0.25 10^−6 cm/s; Significant efflux (Caco-2 cells [2]): No; percent recovery A -> B (Caco-2 cells [2]): 96%; percent recovery B -> A (Caco-2 cells [2]): 94%; IC50 (MIA PaCa-2): 64 nM
COCCOCCOCCOCCOCCOCCOCCOP(=O)(O)OC[C@H]1O[C@@H](n2cc(F)c(=O)[nH]c2=O)C[C@@H]1O [Floxuridine Mono (mPEG7), 5′-floxuridine methoxy hepta(ethylene glycol) phosphate]	0.005	0.13	1	157	1.9	4	> 100	0.9	0.13	417	> 100	~32	35	2.3	< 0.1	1	76	2	48	2	Papp A -> B (Caco-2 cells [3]): 0.14 10^−6 cm/s; Papp B -> A (Caco-2 cells [3]): 0.06 10^−6 cm/s; Papp B-A/Papp A-B (Caco-2 cells [3]): 0.4; Significant efflux (Caco-2 cells [3]): No; percent recovery A -> B (Caco-2 cells [3]): 79%; percent recovery B -> A (Caco-2 cells [3]): 89%; GI50 (MCF7; 48 h drug exposure, read-out: GI50 in MCF7): 2.2 µM; IC50 (MIA PaCa-2): 96 nM; Papp A -> B (MDCK cells [4]): <0.06 10^−6 cm/s; Papp B -> A (MDCK cells [4]): <0.08 10^−6 cm/s; Significant efflux (MDCK cells [4]): No; percent recovery A -> B (MDCK cells [4]): 100%; percent recovery B -> A (MDCK cells [4]): 90%
